Tests used:
Type in all cases: in vivo
[1] = tested on: Soybean variety "Cordoba"; assay: Plant growth test, greenhouse, seed treatment, soybean variety Cordoba; details: for Green surface, % of untreated: 15 days; for Green surface: 15 days at 20° C., 80% relative humidity
Protocol: (§1) The test is performed in the greenhouse. 7 soybean seeds per treatment of 2 varieties (Cordoba and Isidor) were sown in 5 liter pots containing 13 cm of a mix of steamed field soil and sand (1:1), 2 replicates were made. The tested compound as well as the reference active ingredient were both solved in a standard solvent used for soybean seed application and known to be safe. Seed treatment was performed with the aid of laboratory equipment. For untreated, 4 replicates were made and seeds were treated with the pure solvent. 2 fungicide concentrations were tested: 5 g a.i./100 kg and 10 g a.i./100 kg. Seeds were then covered by 5 cm of the same mix of steamed field soil and sand (1:1). Pots were incubated in the greenhouse 15 days at 20° C. and 80% relative humidity. Assessment consisted of calculation of green surface of soybean (pixel) using a digital imaging software to manage data analysis.

Soybean variety "Isidor" = assay: Plant growth test, greenhouse, seed treatment, soybean variety Isidor; details: for Green surface, % of untreated: 15 days; for Green surface: 15 days at 20° C., 80% relative humidity
Protocol: as §1

soybean seeds = assay: Emergence of soybean plants after seed treatment; details: soybean seeds treated

| Compound | Green surface, % of untreated ([1]; seed treatment 5 g a.i./100kg) | Green surface ([1]; seed treatment 5 g a.i./100kg) | Green surface, % of untreated ([1]; seed treatment 10 g a.i./100kg) | Green surface ([1]; seed treatment 10 g a.i./100kg) | Green surface, % of untreated (Soybean variety "Isidor"; seed treatment 5 g a.i./100kg) | Green surface (Soybean variety "Isidor"; seed treatment 5 g a.i./100kg) | Green surface, % of untreated (Soybean variety "Isidor"; seed treatment 10 g a.i./100kg) | Green surface (Soybean variety "Isidor"; seed treatment 10 g a.i./100kg) | Emergence of the soybean plants in comparison to untreated plants (soybean seeds) |
| --- | --- | --- | --- | --- | --- | --- | --- | --- | --- |
| O=C(Nc1ccccc1-c1ccc(Cl)cc1)c1cccnc1Cl [Boscalid, reference compound] | 109 % of untreated | 74661 pixel | 113 % of untreated | 77243 pixel | 86 % of untreated | 71972 pixel | 86 % of untreated | 72634 pixel | – |
| Cc1nn(C)c(F)c1C(=O)Nc1ccccc1C(C)CC(C)C (centres unmarked) [Penflufen, N-{2-(1,3-dimethylbutyl)anilino}-1,3-dimethyl-5-fluor-4-pyrazol] | 160 % of untreated | 109373 pixel | 158 % of untreated | 108284 pixel | 125 % of untreated | 105395 pixel | 133 % of untreated | 111543 pixel | earlier emergence |

Reference: US20110009267A1, “Process for Improving Seedling Growth and/or Early Emergence of Crops” (Bayer CropScience AG, priority 2009, published 2011)
